Assay results: ChEMBL document CHEMBL1201862, “PubChem BioAssay data set” (2004)
Activity calls are given as the source filed them.

Experiments:
[1] = molecular target: T1, E3 ubiquitin-protein ligase XIAP (Homo sapiens, UniProt P98170); test: Counter Screen using XIAP-Bir3 for Chemical Antagonists of Bir1/2 domains of IAP-family anti-apoptotic proteins. [Related pubchem assays (depositor defined):AID1018, AID1449, AID1514, AID1638, AID1749, AID1750, AID488957, AID488963]
[2] = molecular target: T1, E3 ubiquitin-protein ligase XIAP; test: small molecules displacing peptide from XIAP – biochemical, IAP family, fluorescence polarization (AID 1018); format: functional
[3] = tested on: Vero; test: cells; format: functional; conditions: Chlorocebus sabaeus
[4] = tested on: A-375; test: proliferation inhibition in MITF-low A375 cells – cell-based, cherry-pick samples, set 2, counter-screen for MITF modulator project, dose response (AID 540335); format: functional; conditions: Homo sapiens
[5] = molecular target: Integrin alpha-4 (Homo sapiens, UniProt P13612); test: allosteric modulators of alpha4 integrin VLA-4 – cell-based, LIBS antibody binding, flow cytometry, SAR follow-up (AID 488791); format: functional
Sequence of Integrin alpha-4 (P13612 whole entry): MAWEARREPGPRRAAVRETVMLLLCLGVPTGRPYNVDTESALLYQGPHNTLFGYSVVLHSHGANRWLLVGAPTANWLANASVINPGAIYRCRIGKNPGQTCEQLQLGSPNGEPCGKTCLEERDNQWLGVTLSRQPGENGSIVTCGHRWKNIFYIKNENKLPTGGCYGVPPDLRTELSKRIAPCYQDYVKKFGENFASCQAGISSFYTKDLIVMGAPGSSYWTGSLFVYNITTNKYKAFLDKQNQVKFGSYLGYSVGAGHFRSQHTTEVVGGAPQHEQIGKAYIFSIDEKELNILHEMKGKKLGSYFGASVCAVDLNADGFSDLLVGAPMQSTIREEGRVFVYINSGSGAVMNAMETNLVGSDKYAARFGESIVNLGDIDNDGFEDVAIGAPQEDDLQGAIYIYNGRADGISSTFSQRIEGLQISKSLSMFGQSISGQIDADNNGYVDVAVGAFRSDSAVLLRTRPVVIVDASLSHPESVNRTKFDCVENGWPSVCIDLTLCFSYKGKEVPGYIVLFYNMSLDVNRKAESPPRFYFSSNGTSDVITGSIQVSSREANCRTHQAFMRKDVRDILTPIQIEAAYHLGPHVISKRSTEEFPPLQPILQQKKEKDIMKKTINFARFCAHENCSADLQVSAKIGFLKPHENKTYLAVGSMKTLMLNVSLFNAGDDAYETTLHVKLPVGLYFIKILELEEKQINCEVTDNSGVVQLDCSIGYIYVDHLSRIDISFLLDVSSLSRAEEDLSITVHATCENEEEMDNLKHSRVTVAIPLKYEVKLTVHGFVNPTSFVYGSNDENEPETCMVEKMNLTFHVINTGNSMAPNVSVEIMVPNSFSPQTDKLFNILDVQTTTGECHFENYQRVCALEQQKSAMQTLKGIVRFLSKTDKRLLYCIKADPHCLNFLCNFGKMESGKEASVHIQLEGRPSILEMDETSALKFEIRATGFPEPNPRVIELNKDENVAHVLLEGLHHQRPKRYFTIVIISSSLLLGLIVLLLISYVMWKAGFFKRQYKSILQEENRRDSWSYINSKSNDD

[6] = molecular target: T2, Microphthalmia-associated transcription factor (Homo sapiens, UniProt O75030); test: reducers of TRPM1 reporter luminescence, concentration series – cell-based, SK-MEL-5, cherry-picked, set 3, MITF inhibitor project, dose response (AID 493073); format: functional;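 also: SK-MEL-5 melanoma cells with luciferase driven by the MITF target TRPM1 promoter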
T2 sequence (O75030 whole entry): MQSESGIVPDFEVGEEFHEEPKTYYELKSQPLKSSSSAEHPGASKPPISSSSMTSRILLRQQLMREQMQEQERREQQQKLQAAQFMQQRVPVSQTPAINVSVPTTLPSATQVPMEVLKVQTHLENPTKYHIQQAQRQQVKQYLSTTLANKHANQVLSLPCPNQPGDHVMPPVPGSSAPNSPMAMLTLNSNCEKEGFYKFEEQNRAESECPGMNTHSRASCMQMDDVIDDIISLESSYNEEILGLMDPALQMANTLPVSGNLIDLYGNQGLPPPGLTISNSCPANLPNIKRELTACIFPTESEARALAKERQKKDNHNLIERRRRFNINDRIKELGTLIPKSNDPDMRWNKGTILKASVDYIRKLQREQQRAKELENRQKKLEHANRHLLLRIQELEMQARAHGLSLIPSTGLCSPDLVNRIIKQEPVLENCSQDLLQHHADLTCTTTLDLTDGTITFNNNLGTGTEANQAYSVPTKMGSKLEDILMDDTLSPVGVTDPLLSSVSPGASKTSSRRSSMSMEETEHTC

[7] = tested on: A-375; test: MITF: Counter assay: A375 proliferation Measured in Cell-Based System Using Plate Reader - 2084-03_Inhibitor_Dose_DryPowder_Activity. [Related pubchem assays (depositor defined):AID488944]; format: functional; conditions: Homo sapiens
[8] = molecular target: T3, Hexokinase-1 (Homo sapiens, UniProt P19367); test: HK1 enzyme activation by HKDC1 hits – biochemical, selectivity assay for HKDC1 activator project, dose response (AID 504762); format: functional
T3 sequence (P19367 whole entry): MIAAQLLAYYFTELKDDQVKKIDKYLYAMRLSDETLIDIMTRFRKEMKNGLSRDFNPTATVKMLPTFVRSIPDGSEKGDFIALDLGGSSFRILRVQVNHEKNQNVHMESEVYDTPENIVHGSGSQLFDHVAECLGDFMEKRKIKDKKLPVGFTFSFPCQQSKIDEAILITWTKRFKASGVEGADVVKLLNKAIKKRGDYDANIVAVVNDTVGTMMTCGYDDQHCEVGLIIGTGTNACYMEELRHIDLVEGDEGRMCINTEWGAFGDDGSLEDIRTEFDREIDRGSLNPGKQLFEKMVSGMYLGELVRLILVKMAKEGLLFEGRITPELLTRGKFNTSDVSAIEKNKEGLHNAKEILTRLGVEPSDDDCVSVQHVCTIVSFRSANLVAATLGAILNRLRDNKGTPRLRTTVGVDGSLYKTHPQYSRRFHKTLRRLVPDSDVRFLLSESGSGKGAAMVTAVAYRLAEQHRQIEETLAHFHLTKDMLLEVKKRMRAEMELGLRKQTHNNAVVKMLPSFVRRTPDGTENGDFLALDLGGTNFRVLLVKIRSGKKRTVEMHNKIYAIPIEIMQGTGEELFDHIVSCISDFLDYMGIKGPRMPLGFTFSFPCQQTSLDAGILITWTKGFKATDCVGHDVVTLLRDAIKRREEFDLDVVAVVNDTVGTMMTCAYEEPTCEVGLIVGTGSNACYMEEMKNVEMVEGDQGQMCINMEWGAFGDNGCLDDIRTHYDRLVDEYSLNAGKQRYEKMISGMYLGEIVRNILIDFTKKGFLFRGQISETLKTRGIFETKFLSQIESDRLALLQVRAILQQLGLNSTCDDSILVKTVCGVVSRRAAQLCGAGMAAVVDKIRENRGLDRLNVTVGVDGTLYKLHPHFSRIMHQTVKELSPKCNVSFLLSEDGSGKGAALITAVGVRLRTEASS

[9] = molecular target: T4, Hexokinase HKDC1 (Homo sapiens, UniProt Q2TB90); test: activation of HKDC1 glucose phosphorylation – biochemical, W721R variant, dose response (AID 504730); format: functional
T4 sequence (Q2TB90 whole entry): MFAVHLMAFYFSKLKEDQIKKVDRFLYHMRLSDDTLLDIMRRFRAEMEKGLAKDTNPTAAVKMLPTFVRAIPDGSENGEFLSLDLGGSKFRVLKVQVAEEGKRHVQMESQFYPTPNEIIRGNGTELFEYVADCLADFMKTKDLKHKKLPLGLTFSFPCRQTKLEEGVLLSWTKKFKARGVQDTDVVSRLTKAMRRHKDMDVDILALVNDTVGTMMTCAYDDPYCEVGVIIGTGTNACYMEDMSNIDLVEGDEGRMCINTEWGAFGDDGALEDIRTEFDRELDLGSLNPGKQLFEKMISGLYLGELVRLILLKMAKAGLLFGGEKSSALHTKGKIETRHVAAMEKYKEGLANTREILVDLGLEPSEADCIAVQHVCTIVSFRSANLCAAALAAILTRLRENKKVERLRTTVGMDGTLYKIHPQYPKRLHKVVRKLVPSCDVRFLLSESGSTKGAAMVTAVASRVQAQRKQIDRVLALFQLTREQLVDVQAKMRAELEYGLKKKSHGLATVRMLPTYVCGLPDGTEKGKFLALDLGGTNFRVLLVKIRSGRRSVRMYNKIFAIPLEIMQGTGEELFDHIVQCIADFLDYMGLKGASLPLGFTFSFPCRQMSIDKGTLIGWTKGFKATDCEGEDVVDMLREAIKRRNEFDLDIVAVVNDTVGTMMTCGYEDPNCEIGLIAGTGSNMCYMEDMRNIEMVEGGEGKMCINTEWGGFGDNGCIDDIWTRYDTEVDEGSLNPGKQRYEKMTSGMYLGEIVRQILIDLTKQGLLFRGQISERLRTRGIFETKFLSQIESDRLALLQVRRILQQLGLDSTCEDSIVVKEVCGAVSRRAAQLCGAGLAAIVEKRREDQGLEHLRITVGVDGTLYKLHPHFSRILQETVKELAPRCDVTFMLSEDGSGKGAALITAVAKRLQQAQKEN

[10] = alpha-synuclein stem-loop luciferase translation blockers – H4 neuroglioma cells, luminescence, confirmation (AID 1988); format: functional, cell-based
[11] = Luminescence Cell-Based Dose Response HTS to Identify Inhibitors of 5'UTR Stem-Loop Driven Prion Protein mRNA Translation in H4 Neuroglioblastoma Cells. [Related pubchem assays: 1827 (Project Summary), 1813 (Primary HTS)]; format: functional
[12] = luciferase reporter signal suppression in cells – H4 neuroglioma cells, luminescence, dose response (AID 1990); format: functional, cell-based
[13] = Luminescence Cell-Based Dose Retest to Confirm Inhibitors of Cancer Stem Cells. [Related pubchem assays (depositor defined):AID2717, AID2721]; format: functional; conditions: Homo sapiens
[14] = Intein inhibitors as potential Tuberculosis drugs, a cytotoxicity screen. [Related pubchem assays (depositor defined):AID2221, AID2223, AID434968, AID435010, AID449749, AID449750, AID489010]; format: functional
[15] = molecular target: T5, Replicative DNA helicase DnaB (Mycobacterium tuberculosis, UniProt P9WMR3); test: DnaB intein splicing inhibitors, dose response, biochemical, cell-free fluorescence (AID 449749); format: functional
T5 sequence (P9WMR3 whole entry): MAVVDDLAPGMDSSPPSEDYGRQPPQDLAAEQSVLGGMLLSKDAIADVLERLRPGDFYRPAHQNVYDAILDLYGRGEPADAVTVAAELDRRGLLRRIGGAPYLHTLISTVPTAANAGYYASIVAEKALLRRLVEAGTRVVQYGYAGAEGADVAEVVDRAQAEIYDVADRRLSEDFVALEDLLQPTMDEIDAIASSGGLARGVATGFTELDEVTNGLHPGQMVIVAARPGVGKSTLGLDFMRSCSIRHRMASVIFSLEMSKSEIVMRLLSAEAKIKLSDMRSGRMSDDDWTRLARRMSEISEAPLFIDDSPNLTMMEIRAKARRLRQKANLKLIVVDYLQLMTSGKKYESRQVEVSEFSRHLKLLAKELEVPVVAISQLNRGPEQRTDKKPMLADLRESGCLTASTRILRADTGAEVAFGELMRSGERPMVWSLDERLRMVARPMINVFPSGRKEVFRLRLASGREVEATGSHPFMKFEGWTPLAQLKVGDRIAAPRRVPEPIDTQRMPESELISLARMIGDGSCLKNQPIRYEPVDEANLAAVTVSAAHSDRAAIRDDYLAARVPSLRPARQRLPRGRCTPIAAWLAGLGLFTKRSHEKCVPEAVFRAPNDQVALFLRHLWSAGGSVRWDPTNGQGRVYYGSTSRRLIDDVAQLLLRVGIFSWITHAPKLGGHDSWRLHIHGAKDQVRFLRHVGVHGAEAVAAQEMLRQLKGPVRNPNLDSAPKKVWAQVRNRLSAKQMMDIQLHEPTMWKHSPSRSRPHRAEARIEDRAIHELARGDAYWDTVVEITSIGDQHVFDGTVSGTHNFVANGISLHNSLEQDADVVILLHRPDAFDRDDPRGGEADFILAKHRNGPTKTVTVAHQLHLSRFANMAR

[16] = molecular target: T6, Protein RecA (Mycobacterium tuberculosis, UniProt P9WHJ3); test: Fluorescence Cell-Free Homogeneous Dose Retest to Identify Inhibitors of RecA-Intein Splicing Activity. [Related pubchem assays (depositor defined):AID2097, AID2223, AID489010, AID492950]; format: functional
T6 sequence (P9WHJ3 whole entry): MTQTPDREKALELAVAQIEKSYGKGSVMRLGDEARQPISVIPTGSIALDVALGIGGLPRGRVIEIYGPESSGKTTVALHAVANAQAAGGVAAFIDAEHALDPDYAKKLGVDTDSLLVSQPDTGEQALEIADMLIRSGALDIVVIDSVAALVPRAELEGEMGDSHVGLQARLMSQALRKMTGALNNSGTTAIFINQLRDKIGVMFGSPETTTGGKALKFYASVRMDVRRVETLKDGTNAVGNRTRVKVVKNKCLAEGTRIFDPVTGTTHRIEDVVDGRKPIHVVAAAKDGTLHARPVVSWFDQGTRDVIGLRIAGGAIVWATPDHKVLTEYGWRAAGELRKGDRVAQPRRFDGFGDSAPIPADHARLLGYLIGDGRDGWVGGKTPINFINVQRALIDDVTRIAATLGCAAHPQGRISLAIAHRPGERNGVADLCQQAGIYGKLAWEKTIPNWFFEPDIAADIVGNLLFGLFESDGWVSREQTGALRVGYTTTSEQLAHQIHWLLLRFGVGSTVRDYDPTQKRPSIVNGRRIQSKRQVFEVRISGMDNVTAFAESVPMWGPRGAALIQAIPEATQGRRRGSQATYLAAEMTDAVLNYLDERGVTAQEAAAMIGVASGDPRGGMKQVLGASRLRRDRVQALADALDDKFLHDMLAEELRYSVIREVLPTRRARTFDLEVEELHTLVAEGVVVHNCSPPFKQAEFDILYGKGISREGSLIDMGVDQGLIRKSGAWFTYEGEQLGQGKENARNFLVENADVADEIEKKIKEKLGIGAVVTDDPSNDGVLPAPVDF

[17] = molecular target: Cytochrome P450 2D6 (Homo sapiens, UniProt P10635);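 also: CYP2D6 member of a cytochrome P450 panel assay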
Sequence of Cytochrome P450 2D6 (P10635 whole entry): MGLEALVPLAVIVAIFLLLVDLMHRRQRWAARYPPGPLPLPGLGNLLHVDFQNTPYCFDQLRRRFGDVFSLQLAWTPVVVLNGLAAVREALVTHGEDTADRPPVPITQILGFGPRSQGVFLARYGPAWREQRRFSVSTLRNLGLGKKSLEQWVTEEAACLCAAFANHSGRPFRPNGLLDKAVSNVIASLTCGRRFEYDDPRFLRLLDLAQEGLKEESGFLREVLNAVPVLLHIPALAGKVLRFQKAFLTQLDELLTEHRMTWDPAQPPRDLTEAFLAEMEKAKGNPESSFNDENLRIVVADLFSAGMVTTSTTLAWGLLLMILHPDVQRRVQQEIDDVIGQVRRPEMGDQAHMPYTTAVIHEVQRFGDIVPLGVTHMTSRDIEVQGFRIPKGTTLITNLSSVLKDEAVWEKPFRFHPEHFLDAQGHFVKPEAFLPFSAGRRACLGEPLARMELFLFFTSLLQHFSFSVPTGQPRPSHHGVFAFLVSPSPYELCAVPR

[18] = molecular target: T7, Kappa-type opioid receptor (Homo sapiens, UniProt P41145); test: SAR analysis of Antagonists of the Kappa Opioid Receptor (KOR) using an Image-Based Assay - Set 3. [Related pubchem assays (depositor defined):AID1777, AID1785]; format: functional
T7 sequence (P41145 whole entry): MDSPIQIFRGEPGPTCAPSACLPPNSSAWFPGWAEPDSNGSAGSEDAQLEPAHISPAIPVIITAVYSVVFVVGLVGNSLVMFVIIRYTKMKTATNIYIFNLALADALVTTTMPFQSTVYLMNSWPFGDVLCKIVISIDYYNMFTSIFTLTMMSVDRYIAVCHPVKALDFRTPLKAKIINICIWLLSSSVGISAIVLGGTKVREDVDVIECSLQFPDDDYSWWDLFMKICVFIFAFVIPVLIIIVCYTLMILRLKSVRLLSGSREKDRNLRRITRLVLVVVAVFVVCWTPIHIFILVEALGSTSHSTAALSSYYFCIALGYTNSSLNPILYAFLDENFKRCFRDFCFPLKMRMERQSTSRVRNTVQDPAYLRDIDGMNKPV

[19] = molecular target: T7, Kappa-type opioid receptor; test: SAR analysis of small molecule antagonists of the kappa opioid receptor via a luminescent beta-arrestin assay - Set 3. [Related pubchem assays (depositor defined):AID1777, AID1778, AID1785, AID1786, AID1966, AID2133, AID2136, AID2285, AID2495]; format: functional
[20] = molecular target: Mu-type opioid receptor (Homo sapiens, UniProt P35372); test: SAR Analysis of Antagonists of the MOR Receptor using an Image-Based Assay - Set 3. [Related pubchem assays (depositor defined):AID1777, AID1785, AID1786, AID1966, AID2133, AID2136, AID2284, AID2285, AID2420]; format: functional
Sequence of Mu-type opioid receptor (P35372 whole entry): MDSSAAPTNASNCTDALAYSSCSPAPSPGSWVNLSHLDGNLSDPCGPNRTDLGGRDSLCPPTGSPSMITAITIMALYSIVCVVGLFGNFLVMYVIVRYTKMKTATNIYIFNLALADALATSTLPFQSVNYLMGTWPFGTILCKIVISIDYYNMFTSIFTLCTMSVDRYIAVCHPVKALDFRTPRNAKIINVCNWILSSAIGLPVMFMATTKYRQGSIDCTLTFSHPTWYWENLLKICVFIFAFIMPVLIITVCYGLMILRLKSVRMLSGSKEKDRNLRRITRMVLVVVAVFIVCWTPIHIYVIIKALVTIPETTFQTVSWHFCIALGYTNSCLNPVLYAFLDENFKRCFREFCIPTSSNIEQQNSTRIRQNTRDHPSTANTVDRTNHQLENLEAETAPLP

[21] = molecular target: Delta-type opioid receptor (Homo sapiens, UniProt P41143); test: SAR Analysis of Antagonists of the DOR Receptor using an Image-Based Assay - Set 3. [Related pubchem assays (depositor defined):AID1777, AID1785]; format: functional;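 also: U2OS cells expressing DOR1 and beta-arrestin GFP stimulated with 100 nM SNC80; imaging of GFP-tagged beta-arrestin moving into spots after receptor activation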
Sequence of Delta-type opioid receptor (P41143 whole entry): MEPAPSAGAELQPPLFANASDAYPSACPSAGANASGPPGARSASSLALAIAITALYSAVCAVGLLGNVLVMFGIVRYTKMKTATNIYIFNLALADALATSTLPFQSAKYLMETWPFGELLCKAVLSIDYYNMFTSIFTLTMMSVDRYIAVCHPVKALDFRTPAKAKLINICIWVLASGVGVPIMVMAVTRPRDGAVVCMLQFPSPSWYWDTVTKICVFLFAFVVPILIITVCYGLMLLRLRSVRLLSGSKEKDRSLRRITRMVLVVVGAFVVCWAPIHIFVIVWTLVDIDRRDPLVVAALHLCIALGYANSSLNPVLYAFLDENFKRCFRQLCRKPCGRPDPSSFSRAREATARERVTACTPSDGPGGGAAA

T1 sequence (P98170 whole entry): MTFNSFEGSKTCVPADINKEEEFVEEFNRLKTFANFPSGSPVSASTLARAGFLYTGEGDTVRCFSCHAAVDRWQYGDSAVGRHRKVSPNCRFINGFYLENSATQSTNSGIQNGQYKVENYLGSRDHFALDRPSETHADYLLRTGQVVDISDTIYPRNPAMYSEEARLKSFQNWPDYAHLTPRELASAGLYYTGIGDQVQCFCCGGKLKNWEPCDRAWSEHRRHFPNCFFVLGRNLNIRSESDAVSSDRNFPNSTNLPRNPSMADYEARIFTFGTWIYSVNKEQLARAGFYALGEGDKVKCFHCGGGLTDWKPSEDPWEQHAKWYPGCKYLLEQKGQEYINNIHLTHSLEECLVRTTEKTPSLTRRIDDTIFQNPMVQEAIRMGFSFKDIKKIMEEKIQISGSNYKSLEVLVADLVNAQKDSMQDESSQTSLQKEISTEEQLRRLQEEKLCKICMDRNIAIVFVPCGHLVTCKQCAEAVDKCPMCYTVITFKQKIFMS

CCOC(=O)C1(CCCc2ccccc2)CCN(C(=O)C2=C(C)OCCO2)CC1
IC50 [1]: > 100 µM (inactive) | IC50 [2]: > 100 µM (not active)

CCOCCCNC(=O)/C(C#N)=C/c1ccc(Cl)c([N+](=O)[O-])c1
CC50 [3]: > 25 µM (active) | AC50 [4]: > 35 µM (active) | EC50 [5]: > 90.8 µM (inactive) | AC50 [6]: 7.38 µM (active) | AC50 [7]: > 35 µM (active)

COc1cc(OC)cc(C(=O)NC(=S)NNC(=O)c2cnccn2)c1
EC50 [8]: > 80 µM (inactive) | EC50 [9]: 11.5 µM (active) | EC50 [10]: 10.2 µM (active) | EC50 [11]: 11.5 µM (active) | EC50 [12]: > 120 µM (not active)

CC(C)CCn1c(N)c(C(=O)NCc2cccs2)c2nc3ccccc3nc21
AC50 [13]: 3.46 µM (active) | CC50 [14]: > 40 µM (active) | AC50 [15]: 4.01 µM (active) | EC50 [16]: 3.04 µM (active) | AC50 [17]: 8.91 µM (inconclusive)

CCc1ccc(S(=O)(=O)NCc2ccc(C(=O)NCCN(Cc3ccccc3)C(C)CC)cc2)cc1 (stereo unspecified)
IC50 [18]: 470 nM (active) | IC50 [19]: 1.42 µM (active) | IC50 [20]: > 32 µM (inactive) | IC50 [21]: > 32 µM (inactive)
